From patent US20240270762A1, “PENICILLIN-BINDING PROTEIN INHIBITORS” (priority 2021, published 2024)
Converted amounts (≈) assume the structure as drawn.

What was measured:
[1] = molecular target: T1, PBP3 from Acinetobacter baumannii (ATCC 19606) (Acinetobacter baumannii, UniProt A0ABX6CK25); assay: Bocillin-FL fluorescence polarization competition binding, A. baumannii PBP3; conditions: fluorescence polarization competition binding assay using Bocillin-FL; read-out: A. baumannii PBP3 Potency
T1 sequence (A0ABX6CK25 64-610): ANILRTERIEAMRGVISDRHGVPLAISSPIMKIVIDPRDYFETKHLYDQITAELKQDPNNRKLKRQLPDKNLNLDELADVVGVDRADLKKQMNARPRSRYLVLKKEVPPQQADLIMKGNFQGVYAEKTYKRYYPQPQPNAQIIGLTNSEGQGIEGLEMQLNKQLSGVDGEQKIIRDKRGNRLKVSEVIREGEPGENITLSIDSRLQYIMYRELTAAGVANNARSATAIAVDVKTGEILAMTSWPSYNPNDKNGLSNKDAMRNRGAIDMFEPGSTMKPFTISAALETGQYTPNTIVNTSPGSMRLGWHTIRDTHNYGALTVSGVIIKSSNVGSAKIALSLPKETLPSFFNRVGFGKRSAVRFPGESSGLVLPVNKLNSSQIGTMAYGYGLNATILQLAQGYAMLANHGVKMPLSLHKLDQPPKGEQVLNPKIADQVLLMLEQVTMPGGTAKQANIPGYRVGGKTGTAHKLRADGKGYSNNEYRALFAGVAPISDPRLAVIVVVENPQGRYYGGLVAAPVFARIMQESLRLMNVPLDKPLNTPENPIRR
How it was run: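 Purified PBPs pre-incubated with inhibitor (E. coli PBP3 1.5 μM, 30 min; P. aeruginosa PBP3 0.75 μM, A. baumannii PBP1a 1 μM and PBP3 0.2 μM, 15 min), then Bocillin-FL 0.1 μM (0.05 μM for PBP1a) added; FP read up to 60 min. EC50 = concentration halving bound Bocillin-FL.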

A. baumannii 1258916 = assay: microbe, parasite or virus in culture; type: cell-based, Acinetobacter baumannii; conditions: Acinetobacter baumannii, 1258916, read-out: MIC, A. baumannii 1258916
P. aeruginosa ATCC 27853 = assay: microbe, parasite or virus in culture; type: cell-based; conditions: Pseudomonas aeruginosa, ATCC27853, read-out: Minimum inhibitory concentration, P. aeruginosa ATCC 27853
[2] = tested on: B. thailandensis ATCC 700388; assay: microbe, parasite or virus in culture; type: cell-based; conditions: Burkholderia thailandensis, ATCC700388, read-out: Minimum inhibitory concentration (MIC), B. thailandensis ATCC 700388

| SMILES | IC50 [1] [µM] | MIC (A. baumannii 1258916) [µg/mL] | MIC (P. aeruginosa ATCC 27853) [µg/mL] | MIC [2] [µg/mL] |
| --- | --- | --- | --- | --- |
| O=C(NCCCN1CCN(C(=O)NC(C(=O)N[C@H]2Cc3ccc(F)c(C(=O)O)c3OB2O)c2cc(F)c(O)c(O)c2Cl)C(=O)C1=O)c1cc(F)ncc1F (mixture of isomers) [Example 405] | < 10 | 2 to 4 | 2 to 4 | < 1 |
| O=C(NCCCN1CCN(C(=O)N[C@@H](C(=O)N[C@H]2Cc3ccc(F)c(C(=O)O)c3OB2O)c2cc(F)c(O)c(O)c2Cl)C(=O)C1=O)c1cc(F)nc(F)c1 (racemic) [Example 401] | < 10 | < 1 | 2 to 4 (≈ 2.56 to 5.12 µM) | > 128 |
| O=C(NCCCN1CCN(C(=O)N[C@@H](C(=O)N[C@H]2Cc3ccc(F)c(C(=O)O)c3OB2O)c2cc(F)c(O)c(O)c2Cl)C(=O)C1=O)c1ccc(O)cc1F (racemic) [Example 417] | 10 to 50 | < 1 | 8 to 16 (≈ 10.3 to 20.6 µM) | > 128 |
| O=C(NCCCN1CCN(C(=O)N[C@@H](C(=O)N[C@H]2Cc3ccc(F)c(C(=O)O)c3OB2O)c2cc(F)c(O)c(O)c2Cl)C(=O)C1=O)c1c(F)cc(O)cc1F (racemic) [Example 420] | < 10 | 2 to 4 (≈ 2.51 to 5.03 µM) | 2 to 4 (≈ 2.51 to 5.03 µM) | 2 to 4 (≈ 2.51 to 5.03 µM) |
| CS(=O)(=O)N1CCN(C(=O)N[C@@H](C(=O)N[C@H]2Cc3cccc(C(=O)O)c3OB2O)c2ccc(P(=O)(O)O)cc2)C1=O (single isomer, unassigned) [Example 6] | < 10 | 32 to 64 (≈ 52.4 to 105 µM) | 32 to 64 (≈ 52.4 to 105 µM) | 8 to 16 (≈ 13.1 to 26.2 µM) |
| O=C(O)c1c(F)ccc2c1OB(O)[C@@H](NC(=O)[C@@H](NC(=O)N1CCN(C3CCN(C(=O)Nc4ccc(O)cc4)CC3)C1=O)c1cc(F)c(O)c(O)c1Cl)C2 (single isomer, unassigned) [Example 467] | < 10 | < 1 | < 1 | < 1 |
| O=C(O)c1c(F)ccc2c1OB(O)[C@@H](NC(=O)[C@H](NC(=O)N1CCN(C3CCN(C(=O)Nc4ccc(O)cc4)CC3)C1=O)c1cc(F)c(O)c(O)c1Cl)C2 (single isomer, unassigned) [Example 468] | < 10 | < 1 | < 1 | < 1 |
| O=C(NCCCN1CCN(C(=O)N[C@H](C(=O)N[C@H]2Cc3ccc(F)c(C(=O)O)c3OB2O)c2cc(F)c(O)c(O)c2Cl)C(=O)C1=O)c1ccc(O)cc1Cl (single isomer, unassigned) [Example 470] | 10 to 50 | > 128 | 2 to 4 (≈ 2.52 to 5.04 µM) | > 128 |
| O=C(NCCCN1CCN(C(=O)N[C@@H](C(=O)N[C@H]2Cc3ccc(F)c(C(=O)O)c3OB2O)c2cc(F)c(O)c(O)c2Cl)C(=O)C1=O)c1ccc(O)cc1Cl (single isomer, unassigned) [Example 471] | < 10 | < 1 | < 1 | < 1 |
| O=C(NCCCN1CCN(C(=O)N[C@H](C(=O)N[C@H]2Cc3ccc(F)c(C(=O)O)c3OB2O)c2cc(F)c(O)c(O)c2Cl)C(=O)C1=O)c1cc(F)c(O)cc1F (single isomer, unassigned) [Example 472] | < 10 | 8 to 16 (≈ 10.1 to 20.1 µM) | 2 to 4 (≈ 2.51 to 5.03 µM) | 2 to 4 (≈ 2.51 to 5.03 µM) |
| O=C(NCCCN1CCN(C(=O)N[C@@H](C(=O)N[C@H]2Cc3ccc(F)c(C(=O)O)c3OB2O)c2cc(F)c(O)c(O)c2Cl)C(=O)C1=O)c1cc(F)c(O)cc1F (single isomer, unassigned) [Example 473] | < 10 | 2 to 4 (≈ 2.51 to 5.03 µM) | 2 to 4 (≈ 2.51 to 5.03 µM) | < 1 |
| O=C(NCCCS(=O)(=O)N1CCN(C(=O)NC(C(=O)N[C@H]2Cc3ccc(F)c(C(=O)O)c3OB2O)c2cc(F)c(O)c(O)c2Cl)C1=O)Nc1cccc(O)c1 (stereo partly drawn) [Example 277, (3R)-3-(2-(2-chloro-5-fluoro-3,4-dihydroxyphenyl)-2-(3-((3-(3-(3-hydroxyphenyl)ureido)propyl)sulfonyl)-2-oxoimidazolidine-1-carboxamido)acetamido)-7-fluoro-2-hydroxy-3,4-dihydro-2H-benzo[e][1,2]oxaborinine-8-carboxylic acid] | < 10 | 2 to 4 (≈ 2.47 to 4.93 µM) | 2 to 4 (≈ 2.47 to 4.93 µM) | 32 to 64 (≈ 39.5 to 78.9 µM) |
| O=C(NCCCS(=O)(=O)N1CCN(C(=O)NC(C(=O)N[C@H]2Cc3ccc(F)c(C(=O)O)c3OB2O)c2cc(F)c(O)c(O)c2Cl)C1=O)Nc1cccnc1 (stereo partly drawn) [Example 278, (3R)-3-(2-(2-chloro-5-fluoro-3,4-dihydroxyphenyl)-2-(2-oxo-3-((3-(3-(pyridin-3-yl)ureido)propyl)sulfonyl)imidazolidine-1-carboxamido)acetamido)-7-fluoro-2-hydroxy-3,4-dihydro-2H-benzo[e][1,2]oxaborinine-8-carboxylic acid] | < 10 | < 1 | 2 to 4 (≈ 2.51 to 5.03 µM) | 2 to 4 (≈ 2.51 to 5.03 µM) |
| O=C(NCCN1CCN(C(=O)N[C@@H](C(=O)N[C@H]2Cc3ccc(F)c(C(=O)O)c3OB2O)c2cc(F)c(O)c(O)c2Cl)C1=O)Nc1ccc(O)cc1 [Example 279, (R)-3-((R)-2-(2-chloro-5-fluoro-3,4-dihydroxyphenyl)-2-(3-(2-(3-(4-hydroxyphenyl)ureido)ethyl)-2-oxoimidazolidine-1-carboxamido)acetamido)-7-fluoro-2-hydroxy-3,4-dihydro-2H-benzo[e][1,2]oxaborinine-8-carboxylic acid] | < 10 | < 1 | 2 to 4 (≈ 2.73 to 5.46 µM) | < 1 |
| O=C(NCCCN1CCN(C(=O)NC(C(=O)N[C@H]2Cc3ccc(F)c(C(=O)O)c3OB2O)c2cc(F)c(O)c(O)c2Cl)C1=O)c1ccc(O)cc1 (stereo partly drawn) [Example 280, (3R)-3-(2-(2-chloro-5-fluoro-3,4-dihydroxyphenyl)-2-(3-(3-(4-hydroxybenzamido)propyl)-2-oxoimidazolidine-1-carboxamido)acetamido)-7-fluoro-2-hydroxy-3,4-dihydro-2H-benzo[e][1,2]oxaborinine-8-carboxylic acid] | < 10 | < 1 | 2 to 4 (≈ 2.73 to 5.47 µM) | 2 to 4 (≈ 2.73 to 5.47 µM) |
| O=C(NCCCN1CCN(C(=O)NC(C(=O)N[C@H]2Cc3ccc(F)c(C(=O)O)c3OB2O)c2cc(F)c(O)c(O)c2Cl)C1=O)c1cccnc1 (stereo partly drawn) [Example 281, (3R)-3-(2-(2-chloro-5-fluoro-3,4-dihydroxyphenyl)-2-(3-(3-(nicotinamido)propyl)-2-oxoimidazolidine-1-carboxamido)acetamido)-7-fluoro-2-hydroxy-3,4-dihydro-2H-benzo[e][1,2]oxaborinine-8-carboxylic acid] | < 10 | < 1 | 2 to 4 (≈ 2.79 to 5.58 µM) | 2 to 4 (≈ 2.79 to 5.58 µM) |
| O=C(NCCCN1CCN(C(=O)N[C@H](C(=O)N[C@H]2Cc3ccc(F)c(C(=O)O)c3OB2O)c2cc(F)c(O)c(O)c2Cl)C1=O)Nc1ccc(O)cc1 [Example 283, (R)-3-((S)-2-(2-chloro-5-fluoro-3,4-dihydroxyphenyl)-2-(3-(3-(3-(4-hydroxyphenyl)ureido)propyl)-2-oxoimidazolidine-1-carboxamido)acetamido)-7-fluoro-2-hydroxy-3,4-dihydro-2H-benzo[e][1,2]oxaborinine-8-carboxylic acid] | 50 to 250 | > 128 | > 128 | > 128 |
| O=C(NCCCN1CCN(C(=O)N[C@@H](C(=O)N[C@H]2Cc3ccc(F)c(C(=O)O)c3OB2O)c2cc(F)c(O)c(O)c2Cl)C1=O)Nc1ccc(O)cc1 [Example 284, (R)-3-((R)-2-(2-chloro-5-fluoro-3,4-dihydroxyphenyl)-2-(3-(3-(3-(4-hydroxyphenyl)ureido)propyl)-2-oxoimidazolidine-1-carboxamido)acetamido)-7-fluoro-2-hydroxy-3,4-dihydro-2H-benzo[e][1,2]oxaborinine-8-carboxylic acid] | < 10 | < 1 | 2 to 4 (≈ 2.68 to 5.36 µM) | < 1 |
| O=C(NCCCN1CCN(C(=O)NC(C(=O)N[C@H]2Cc3ccc(F)c(C(=O)O)c3OB2O)c2cc(F)c(O)c(O)c2Cl)C1=O)Nc1ccncc1 (stereo partly drawn) [Example 285, (3R)-3-(2-(2-chloro-5-fluoro-3,4-dihydroxyphenyl)-2-(2-oxo-3-(3-(3-(pyridin-4-yl)ureido)propyl)imidazolidine-1-carboxamido)acetamido)-7-fluoro-2-hydroxy-3,4-dihydro-2H-benzo[e][1,2]oxaborinine-8-carboxylic acid] | < 10 | 2 to 4 (≈ 2.73 to 5.47 µM) | 8 to 16 (≈ 10.9 to 21.9 µM) | 2 to 4 (≈ 2.73 to 5.47 µM) |
